# Results published in patent US6825209B2, “Compounds having unique CB1 receptor binding selectivity and methods for their production and use” (Research Triangle Institute, priority 2002, dated 2004).
# Biological target: T1, human CB1 receptor (Homo sapiens, UniProt P21554)
# T1 construct: expressed in transfected cells; host or cells: HEK-293
# Assay: Radioligand displacement in human CB1 receptor-transfected cells (HEK-293)
# Format: binding
# Conditions: not given
# Method in brief: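 Radioligand displacement was run on HEK-293 cells expressing human CB1, with incubation and separation as for rat brain membranes. IC50 values came from one- or two-site nonlinear regression and were converted to Ki by Cheng-Prusoff.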
# T1 sequence (P21554 whole entry): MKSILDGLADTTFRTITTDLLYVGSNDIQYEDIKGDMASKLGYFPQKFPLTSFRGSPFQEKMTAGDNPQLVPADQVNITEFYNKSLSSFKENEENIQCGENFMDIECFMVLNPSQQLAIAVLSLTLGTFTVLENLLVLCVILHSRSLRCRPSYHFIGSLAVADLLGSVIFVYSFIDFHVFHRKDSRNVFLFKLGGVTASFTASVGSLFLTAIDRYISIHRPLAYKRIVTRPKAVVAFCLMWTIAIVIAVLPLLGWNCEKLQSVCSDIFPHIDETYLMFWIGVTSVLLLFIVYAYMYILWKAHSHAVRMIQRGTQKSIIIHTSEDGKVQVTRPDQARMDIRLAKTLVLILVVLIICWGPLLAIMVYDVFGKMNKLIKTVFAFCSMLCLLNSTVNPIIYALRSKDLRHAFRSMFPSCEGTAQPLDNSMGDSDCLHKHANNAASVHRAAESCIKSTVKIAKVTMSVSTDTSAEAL
SMILES,"Max. Disp. %, 3H-CP55940 [%]","Max. Disp. %, 3H-SR141716A [%]","Max. Disp. %, 3H-WIN55212-2 [%]"
CCCCCCCNC(=O)c1nn(-c2ccc(Cl)cc2Cl)c(-c2ccc(Cl)cc2)c1C [MF9725-133-25],85.3,67.9,53.4

# Same assay, conditions: Ki, displacement of 3H-CP55940
row,SMILES,Ki [nM]
1,CCCCCCCNC(=O)c1nn(-c2ccc(Cl)cc2Cl)c(-c2ccc(Cl)cc2)c1C [MF9725-133-25],29.1

# Same assay, conditions: Ki, displacement of 3H-CP55940, human CB1 transfected cells; radioligand 3H-CP55940; Table 3
row,SMILES,Ki [nM]
1,CCCCNC(=O)c1nn(-c2ccc(Cl)cc2Cl)c(-c2ccc(Cl)cc2)c1C [MF9725-64-17],28
2,CCCCCCNC(=O)c1nn(-c2ccc(Cl)cc2Cl)c(-c2ccc(Cl)cc2)c1C [MF9725-132-25],124
3,Cc1c(C(=O)NC2CCCCC2)nn(-c2ccc(Cl)cc2Cl)c1-c1ccc(Cl)cc1 [MF9725-66-11],7.06
4,Cc1c(C(=O)NCC(C)C)nn(-c2ccc(Cl)cc2Cl)c1-c1ccc(Cl)cc1 [MF9725-68-10],93.6
5,Cc1c(C(=O)NC(C)C)nn(-c2ccc(Cl)cc2Cl)c1-c1ccc(Cl)cc1 [MF9725-65-11],91

# Same assay, conditions: Ki, displacement of 3H-SR141716A
row,SMILES,Ki [nM]
1,CCCCCCCNC(=O)c1nn(-c2ccc(Cl)cc2Cl)c(-c2ccc(Cl)cc2)c1C [MF9725-133-25],9.3

# Same assay, conditions: Ki, displacement of 3H-SR141716A, human CB1 transfected cells; radioligand 3H-SR141716A; Table 3
row,SMILES,Ki [nM]
1,CCCCNC(=O)c1nn(-c2ccc(Cl)cc2Cl)c(-c2ccc(Cl)cc2)c1C [MF9725-64-17],4.79
2,CCCCCCNC(=O)c1nn(-c2ccc(Cl)cc2Cl)c(-c2ccc(Cl)cc2)c1C [MF9725-132-25],23.5
3,Cc1c(C(=O)NC2CCCCC2)nn(-c2ccc(Cl)cc2Cl)c1-c1ccc(Cl)cc1 [MF9725-66-11],1.02
4,Cc1c(C(=O)NCC(C)C)nn(-c2ccc(Cl)cc2Cl)c1-c1ccc(Cl)cc1 [MF9725-68-10],14.3
5,Cc1c(C(=O)NC(C)C)nn(-c2ccc(Cl)cc2Cl)c1-c1ccc(Cl)cc1 [MF9725-65-11],14.4

# Same assay, conditions: Ki, displacement of 3H-WIN55212-2
row,SMILES,Ki [nM]
1,CCCCCCCNC(=O)c1nn(-c2ccc(Cl)cc2Cl)c(-c2ccc(Cl)cc2)c1C [MF9725-133-25],393

# Same assay, conditions: Ki, displacement of 3H-WIN55212-2, human CB1 transfected cells; radioligand 3H-WIN55212-2; Table 3
row,SMILES,Ki [nM]
1,CCCCNC(=O)c1nn(-c2ccc(Cl)cc2Cl)c(-c2ccc(Cl)cc2)c1C [MF9725-64-17],29.8
2,CCCCCCNC(=O)c1nn(-c2ccc(Cl)cc2Cl)c(-c2ccc(Cl)cc2)c1C [MF9725-132-25],85.4
3,Cc1c(C(=O)NC2CCCCC2)nn(-c2ccc(Cl)cc2Cl)c1-c1ccc(Cl)cc1 [MF9725-66-11],5.36
4,Cc1c(C(=O)NCC(C)C)nn(-c2ccc(Cl)cc2Cl)c1-c1ccc(Cl)cc1 [MF9725-68-10],127
5,Cc1c(C(=O)NC(C)C)nn(-c2ccc(Cl)cc2Cl)c1-c1ccc(Cl)cc1 [MF9725-65-11],692

# Same assay, conditions: human CB1 transfected cells; radioligand 3H-CP55940; Table 3
row,SMILES,"Max. Disp. %, 3H-CP55940 [%]"
1,CCCCNC(=O)c1nn(-c2ccc(Cl)cc2Cl)c(-c2ccc(Cl)cc2)c1C [MF9725-64-17],90.2
2,CCCCCCNC(=O)c1nn(-c2ccc(Cl)cc2Cl)c(-c2ccc(Cl)cc2)c1C [MF9725-132-25],85.6
3,Cc1c(C(=O)NC2CCCCC2)nn(-c2ccc(Cl)cc2Cl)c1-c1ccc(Cl)cc1 [MF9725-66-11],92.3
4,Cc1c(C(=O)NCC(C)C)nn(-c2ccc(Cl)cc2Cl)c1-c1ccc(Cl)cc1 [MF9725-68-10],70.1
5,Cc1c(C(=O)NC(C)C)nn(-c2ccc(Cl)cc2Cl)c1-c1ccc(Cl)cc1 [MF9725-65-11],85.4

# Same assay, conditions: human CB1 transfected cells; radioligand 3H-SR141716A; Table 3
row,SMILES,"Max. Disp. %, 3H-SR141716A [%]"
1,CCCCNC(=O)c1nn(-c2ccc(Cl)cc2Cl)c(-c2ccc(Cl)cc2)c1C [MF9725-64-17],97.4
2,CCCCCCNC(=O)c1nn(-c2ccc(Cl)cc2Cl)c(-c2ccc(Cl)cc2)c1C [MF9725-132-25],75.4
3,Cc1c(C(=O)NC2CCCCC2)nn(-c2ccc(Cl)cc2Cl)c1-c1ccc(Cl)cc1 [MF9725-66-11],99.9
4,Cc1c(C(=O)NCC(C)C)nn(-c2ccc(Cl)cc2Cl)c1-c1ccc(Cl)cc1 [MF9725-68-10],99.5
5,Cc1c(C(=O)NC(C)C)nn(-c2ccc(Cl)cc2Cl)c1-c1ccc(Cl)cc1 [MF9725-65-11],100

# Same assay, conditions: human CB1 transfected cells; radioligand 3H-WIN55212-2; Table 3
row,SMILES,"Max. Disp. %, 3H-WIN55212-2 [%]"
1,CCCCNC(=O)c1nn(-c2ccc(Cl)cc2Cl)c(-c2ccc(Cl)cc2)c1C [MF9725-64-17],93.2
2,CCCCCCNC(=O)c1nn(-c2ccc(Cl)cc2Cl)c(-c2ccc(Cl)cc2)c1C [MF9725-132-25],52.7
3,Cc1c(C(=O)NC2CCCCC2)nn(-c2ccc(Cl)cc2Cl)c1-c1ccc(Cl)cc1 [MF9725-66-11],96.8
4,Cc1c(C(=O)NCC(C)C)nn(-c2ccc(Cl)cc2Cl)c1-c1ccc(Cl)cc1 [MF9725-68-10],100
5,Cc1c(C(=O)NC(C)C)nn(-c2ccc(Cl)cc2Cl)c1-c1ccc(Cl)cc1 [MF9725-65-11],93.6

# Biological target: T2, human CB2 receptor (Homo sapiens, UniProt P34972)
# T2 construct: expressed in transfected cells; host or cells: CHO-K1
# Assay: Displacement of 3H-CP55,940 in human CB2 receptor-transfected cells (CHO-K1)
# Format: binding
# Conditions: Ki, displacement of 3H-CP55940, human CB2 transfected cells; radioligand 3H-CP55940; Tables 6 and 7
# Method in brief: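 CB2 receptor expressed in CHO-K1 cells; [3H]-CP55,940 displacement with incubation and separation as for rat brain membranes.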
# T2 sequence (P34972 whole entry): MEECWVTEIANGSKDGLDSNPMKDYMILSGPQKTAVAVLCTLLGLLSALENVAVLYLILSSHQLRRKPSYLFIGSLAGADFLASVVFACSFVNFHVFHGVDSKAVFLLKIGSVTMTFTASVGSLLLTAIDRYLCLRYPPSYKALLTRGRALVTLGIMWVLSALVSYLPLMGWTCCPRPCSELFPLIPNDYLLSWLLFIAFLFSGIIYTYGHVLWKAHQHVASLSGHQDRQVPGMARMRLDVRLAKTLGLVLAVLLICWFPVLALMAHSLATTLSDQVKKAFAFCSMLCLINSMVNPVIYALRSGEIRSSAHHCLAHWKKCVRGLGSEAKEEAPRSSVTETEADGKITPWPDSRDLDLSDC
row,SMILES,Ki [nM]
1,CCCCCCCNC(=O)c1nn(-c2ccc(Cl)cc2Cl)c(-c2ccc(Cl)cc2)c1C [MF9725-133-25],4030

# Same assay, conditions: human CB2 transfected cells; radioligand 3H-CP55940; Tables 6 and 7
row,SMILES,"Max. Disp. %, 3H-CP55940 [%]"
1,CCCCNC(=O)c1nn(-c2ccc(Cl)cc2Cl)c(-c2ccc(Cl)cc2)c1C [MF9725-64-17],75.6
2,CCCCCCNC(=O)c1nn(-c2ccc(Cl)cc2Cl)c(-c2ccc(Cl)cc2)c1C [MF9725-132-25],66.9
3,Cc1c(C(=O)NC2CCCCC2)nn(-c2ccc(Cl)cc2Cl)c1-c1ccc(Cl)cc1 [MF9725-66-11],84.5
4,Cc1c(C(=O)NN2CCOCC2)nn(-c2ccc(Cl)cc2Cl)c1-c1ccc(Cl)cc1 [MF9725-33D],54.5
5,Cc1c(C(=O)NCC(C)C)nn(-c2ccc(Cl)cc2Cl)c1-c1ccc(Cl)cc1 [MF9725-68-10],80.0
6,CCCCCCCNC(=O)c1nn(-c2ccc(Cl)cc2Cl)c(-c2ccc(Cl)cc2)c1C [MF9725-133-25],47.8
7,Cc1c(C(=O)NC(C)C)nn(-c2ccc(Cl)cc2Cl)c1-c1ccc(Cl)cc1 [MF9725-65-11],68.3

# Same assay, conditions: read-out: Ki, displacement of 3H-CP55940; human CB2 transfected cells; radioligand 3H-CP55940; Tables 6 and 7
row,SMILES,Ki [nM]
1,CCCCNC(=O)c1nn(-c2ccc(Cl)cc2Cl)c(-c2ccc(Cl)cc2)c1C [MF9725-64-17],1600
2,CCCCCCNC(=O)c1nn(-c2ccc(Cl)cc2Cl)c(-c2ccc(Cl)cc2)c1C [MF9725-132-25],6870
3,Cc1c(C(=O)NC2CCCCC2)nn(-c2ccc(Cl)cc2Cl)c1-c1ccc(Cl)cc1 [MF9725-66-11],228
4,Cc1c(C(=O)NN2CCOCC2)nn(-c2ccc(Cl)cc2Cl)c1-c1ccc(Cl)cc1 [MF9725-33D],2400
5,Cc1c(C(=O)NCC(C)C)nn(-c2ccc(Cl)cc2Cl)c1-c1ccc(Cl)cc1 [MF9725-68-10],704
6,Cc1c(C(=O)NC(C)C)nn(-c2ccc(Cl)cc2Cl)c1-c1ccc(Cl)cc1 [MF9725-65-11],1740

# Biological target: T3, G-protein-linked cannabinoid receptors (Rattus norvegicus, UniProt P20272)
# T3 construct: tissue Charles River or Pel-Freez Biologicals; host or cells: whole rat brain crude membrane homogenate
# Assay: GTP-γ-[35S] binding in whole rat brain
# Format: biochemical
# Conditions: EC50, GTP-γ-[35S] in Whole Rat Brain, whole rat brain membranes; inverse agonist/antagonist activity
# Source text: Cannabinoid receptor-mediated alteration in GTP-γ-[^35S] binding.
# Introduction. The purpose of this assay was to characterize the functional activity of lead compounds identified by the radioligand competition binding assays described above. Data from the GTP-γ-[^35S] binding assay was used to determine if a compound was an agonist, antagonist or inverse agonist at G-protein-linked cannabinoid receptors. Agonist binding to a G-protein-linked receptor results in an increased affinity of the G-protein α-subunit for GTP relative to GDP. Eventually, an active αGTP complex forms to complete the stimulus-effector coupling. The α-subunit has intrinsic GTPase activity which generates a free α-subunit which can recombine with the β- and γ-subunits readying the G-protein for another signal transduction cycle. In the current assay, GTP-γ-[^35S] cannot be hydrolyzed by the α-subunit. Thus, the amount of bound GTP-γ-[^35S] is a marker for G-protein activation. In this assay, an agonist increases basal GTP-γ-[^35S] binding, an inverse agonist decreases basal binding and basal binding would be unaffected by an antagonist.
# Experimental Design. The specific binding of GTP-γ-[^35S], in the absence of test compound, was termed “basal” activity. Test compounds were characterized as agonist, antagonist, or inverse agonist based on their effect on basal activity. […] The concentrations spanned two orders of magnitude because affinity may not be related to efficacy. […] Effects of the test compounds are reported as the percent change from basal. More thorough dose-response analysis may be run to determine, for example, if a compound is a full or partial agonist.
# Methods. […] In a final volume of 0.5 mL, each assay tube contained: 0.02 mg crude membrane homogenate (0.1 mL), 200 μM GDP (0.05 mL; to reduce basal G-protein activity), 0.1 nM GTP-γ-[^35S] (0.05 mL) and several concentrations of test compound (0.05 mL) or an equivalent volume of vehicle (used for determination of total binding). Nonspecific binding was determined in the presence of 100 μM unlabeled GTP-γ-S (0.05 mL). Duplicate samples were incubated for 1 h at 30° C. Since this assay is amenable for use with high throughput screening methods, the binding assays were run using a 96-well plate format. Specific binding was calculated as total binding-nonspecific binding.
# T3 sequence (P20272 whole entry): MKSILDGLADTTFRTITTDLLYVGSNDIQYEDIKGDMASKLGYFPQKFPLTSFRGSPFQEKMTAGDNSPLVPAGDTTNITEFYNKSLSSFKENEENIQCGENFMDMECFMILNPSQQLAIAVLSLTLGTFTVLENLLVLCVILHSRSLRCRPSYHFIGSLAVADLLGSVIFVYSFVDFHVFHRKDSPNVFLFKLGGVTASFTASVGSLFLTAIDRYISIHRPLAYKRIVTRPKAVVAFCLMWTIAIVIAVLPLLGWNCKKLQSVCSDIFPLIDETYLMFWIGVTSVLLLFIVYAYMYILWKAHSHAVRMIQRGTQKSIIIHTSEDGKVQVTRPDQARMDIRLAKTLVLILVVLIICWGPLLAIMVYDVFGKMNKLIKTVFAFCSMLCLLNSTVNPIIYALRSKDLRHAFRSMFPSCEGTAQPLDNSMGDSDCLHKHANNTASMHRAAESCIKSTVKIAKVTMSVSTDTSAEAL
row,SMILES,EC50 [nM]
1,CCCCCCCNC(=O)c1nn(-c2ccc(Cl)cc2Cl)c(-c2ccc(Cl)cc2)c1C [MF9725-133-25],213000

# Same assay, conditions: read-out: Emax, GTP-γ-[35S] in Whole Rat Brain
row,SMILES,Emax [%]
1,CCCCCCCNC(=O)c1nn(-c2ccc(Cl)cc2Cl)c(-c2ccc(Cl)cc2)c1C [MF9725-133-25],-20

# Same assay, conditions: whole rat brain membranes; effects reported as percent change from basal; read-out: Emax, GTP-γ-[35S] in Whole Rat Brain
row,SMILES,Emax [%]
1,CCCCNC(=O)c1nn(-c2ccc(Cl)cc2Cl)c(-c2ccc(Cl)cc2)c1C [MF9725-64-17],-38.5
2,CCCCCCNC(=O)c1nn(-c2ccc(Cl)cc2Cl)c(-c2ccc(Cl)cc2)c1C [MF9725-132-25],-13
3,Cc1c(C(=O)NC2CCCCC2)nn(-c2ccc(Cl)cc2Cl)c1-c1ccc(Cl)cc1 [MF9725-66-11],-22.1
4,Cc1c(C(=O)NN2CCOCC2)nn(-c2ccc(Cl)cc2Cl)c1-c1ccc(Cl)cc1 [MF9725-33D],-76.3
5,Cc1c(C(=O)NCC(C)C)nn(-c2ccc(Cl)cc2Cl)c1-c1ccc(Cl)cc1 [MF9725-68-10],-11
6,Cc1c(C(=O)NC(C)C)nn(-c2ccc(Cl)cc2Cl)c1-c1ccc(Cl)cc1 [MF9725-65-11],-46.4

# Same assay, conditions: whole rat brain membranes; inverse agonist/antagonist activity; read-out: EC50, GTP-γ-[35S] in Whole Rat Brain
row,SMILES,EC50 [nM]
1,CCCCNC(=O)c1nn(-c2ccc(Cl)cc2Cl)c(-c2ccc(Cl)cc2)c1C [MF9725-64-17],8540
2,CCCCCCNC(=O)c1nn(-c2ccc(Cl)cc2Cl)c(-c2ccc(Cl)cc2)c1C [MF9725-132-25],29400
3,Cc1c(C(=O)NC2CCCCC2)nn(-c2ccc(Cl)cc2Cl)c1-c1ccc(Cl)cc1 [MF9725-66-11],26000
4,Cc1c(C(=O)NN2CCOCC2)nn(-c2ccc(Cl)cc2Cl)c1-c1ccc(Cl)cc1 [MF9725-33D],38900
5,Cc1c(C(=O)NCC(C)C)nn(-c2ccc(Cl)cc2Cl)c1-c1ccc(Cl)cc1 [MF9725-68-10],7540
6,Cc1c(C(=O)NC(C)C)nn(-c2ccc(Cl)cc2Cl)c1-c1ccc(Cl)cc1 [MF9725-65-11],16000
